Key:
[1] = Tested for functional activity against neuronal nicotinic acetylcholine receptor(nAChR) expressed in IMR-32 cells using isotopic rubidium efflux assay.; format: cell-based; conditions: Homo sapiens
[2] = Percent intrinsic activity against IMR-32 cells relative to 100 uM (S)-nicotine.; format: functional, Homo sapiens
[3] = target: T1, Neuronal acetylcholine receptor; alpha4/beta2 (Homo sapiens, UniProt P17787+P43681); experiment: (§1) Percent intrinsic activity against K177 cells relative to 100 uM (S)-nicotine.; format: functional, cell-based
[4] = target: Neuronal acetylcholine receptor; experiment: Tested for neuronal nicotinic acetylcholine receptor (nAChR) binding in a whole rat brain preparation using […] as the radioligand.
[5] = target: T1, Neuronal acetylcholine receptor; alpha4/beta2; experiment: Tested for functional activity against neuronal nicotinic acetylcholine receptor(nAChR) expressed in K177 cells using isotopic rubidium efflux assay.; format: cell-based
[6] = target: T2, Acetylcholine receptor subunit alpha (Homo sapiens, UniProt P02708); experiment: as §1; format: functional, cell-based
[7] = target: T2, Acetylcholine receptor subunit alpha; experiment: Tested for functional activity against alpha-1 neuronal nicotinic acetylcholine receptor(nAChR) expressed in TE671 cells using isotopic rubidium efflux assay.; format: cell-based, TE-671
[8] = target: T2, Acetylcholine receptor subunit alpha; experiment: Percent intrinsic activity against TE671 cells relative to 100 uM (S)-nicotine.; format: functional, cell-based; conditions: TE-671
Rattus norvegicus [9] = species on record: Rattus norvegicus; experiment: Tested for nAChR-mediated dopamine release from rat striatal slices.; format: functional
Rattus norvegicus [10] = species on record: Rattus norvegicus; experiment: Percent intrinsic activity relative to 100 uM (S)-nicotine.; format: functional

T2 sequence (P02708 whole entry): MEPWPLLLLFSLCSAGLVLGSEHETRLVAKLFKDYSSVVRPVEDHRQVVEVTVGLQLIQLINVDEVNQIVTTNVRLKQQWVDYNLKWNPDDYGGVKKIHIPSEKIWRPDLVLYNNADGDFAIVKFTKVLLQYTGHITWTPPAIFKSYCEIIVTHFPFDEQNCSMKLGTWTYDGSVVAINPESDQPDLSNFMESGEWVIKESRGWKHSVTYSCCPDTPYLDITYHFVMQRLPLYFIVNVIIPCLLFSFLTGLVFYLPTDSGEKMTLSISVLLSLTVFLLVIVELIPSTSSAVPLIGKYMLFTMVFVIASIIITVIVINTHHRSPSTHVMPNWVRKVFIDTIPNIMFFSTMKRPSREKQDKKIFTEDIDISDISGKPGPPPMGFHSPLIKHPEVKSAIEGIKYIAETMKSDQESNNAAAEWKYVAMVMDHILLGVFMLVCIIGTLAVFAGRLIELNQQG
T1 sequence (P17787 whole entry): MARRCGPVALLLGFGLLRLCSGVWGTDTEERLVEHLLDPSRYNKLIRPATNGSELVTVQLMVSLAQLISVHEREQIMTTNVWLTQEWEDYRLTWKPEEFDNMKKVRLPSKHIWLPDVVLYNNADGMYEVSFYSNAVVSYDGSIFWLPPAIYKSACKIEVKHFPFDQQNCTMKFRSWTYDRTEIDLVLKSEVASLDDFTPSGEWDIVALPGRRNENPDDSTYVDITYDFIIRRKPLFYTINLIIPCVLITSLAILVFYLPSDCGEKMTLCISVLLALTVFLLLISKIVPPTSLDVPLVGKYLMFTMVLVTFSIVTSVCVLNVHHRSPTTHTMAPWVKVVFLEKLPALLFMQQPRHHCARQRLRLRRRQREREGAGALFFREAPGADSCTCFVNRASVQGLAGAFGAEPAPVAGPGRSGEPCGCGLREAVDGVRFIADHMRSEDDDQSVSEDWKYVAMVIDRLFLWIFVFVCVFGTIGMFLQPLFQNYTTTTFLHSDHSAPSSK
T1 sequence (P43681 whole entry): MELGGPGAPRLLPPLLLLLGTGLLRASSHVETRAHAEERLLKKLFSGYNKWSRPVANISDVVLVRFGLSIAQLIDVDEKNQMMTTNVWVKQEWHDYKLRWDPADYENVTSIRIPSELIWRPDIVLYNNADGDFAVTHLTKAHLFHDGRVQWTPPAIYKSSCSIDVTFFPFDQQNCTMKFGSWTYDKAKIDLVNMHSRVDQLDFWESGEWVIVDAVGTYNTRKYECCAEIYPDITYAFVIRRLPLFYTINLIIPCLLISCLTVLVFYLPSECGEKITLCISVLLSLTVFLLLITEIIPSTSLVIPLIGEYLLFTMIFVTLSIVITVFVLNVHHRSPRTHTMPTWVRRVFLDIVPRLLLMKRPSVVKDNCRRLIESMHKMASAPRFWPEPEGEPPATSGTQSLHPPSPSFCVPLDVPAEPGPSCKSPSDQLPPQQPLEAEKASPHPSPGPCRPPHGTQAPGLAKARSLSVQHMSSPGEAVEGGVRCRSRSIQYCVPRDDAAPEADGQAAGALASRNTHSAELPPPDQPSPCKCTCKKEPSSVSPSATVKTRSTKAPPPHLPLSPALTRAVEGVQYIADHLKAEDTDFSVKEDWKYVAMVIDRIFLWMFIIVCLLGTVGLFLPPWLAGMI

SMILES	EC50 [1] [µM]	Intrinsic activity [2] [%]	Intrinsic activity [3] [%]	Ki [4] [µM]	EC50 [5] [µM]	Intrinsic activity [6] [%]	EC50 [7] [µM]	Intrinsic activity [8] [%]	EC50 (Rattus norvegicus [9]) [µM]	Intrinsic activity (Rattus norvegicus [10]) [%]
c1cnc2cc([C@H]3CCCN3)oc2c1	41.5	57.8	30	0.00511	11	–	–	–	–	–
c1cnc2cc([C@@H]3CCCN3)oc2c1	> 1000	9.2	–	0.0758	–	7.4	–	–	–	–
Cc1cc([C@@H]2CCCN2C)on1 [ABT-418]	64	85	93	–	10.6	–	411	38	380	100
CN1CCC[C@H]1c1cc2ncccc2o1	> 1000	10.6	81	0.00273	3.2	–	> 100	18.9	141	43
CN1CCC[C@H]1COc1cccnc1	24	77.2	100	–	0.75	–	34	40	107	74
CN1CCC[C@@H]1c1cc2ncccc2o1	> 1000	15.2	5.7	0.0979	> 1000	–	–	–	–	–
CN1CCC[C@H]1c1cccnc1 [NICOTINE]	21	100	100	–	–	–	180	100	–	100
